This is an account of results in patent US20160145247A1, “Aminomethyl-Biaryl Derivatives Complement Factor D inhibitors and uses thereof” (NOVARTIS AG, priority 2013, published 2016).

For orientation: IC50 means the concentration at which inhibition is half-maximal. A lower IC50 goes with greater potency.

T1 sequence (P00746 26-253): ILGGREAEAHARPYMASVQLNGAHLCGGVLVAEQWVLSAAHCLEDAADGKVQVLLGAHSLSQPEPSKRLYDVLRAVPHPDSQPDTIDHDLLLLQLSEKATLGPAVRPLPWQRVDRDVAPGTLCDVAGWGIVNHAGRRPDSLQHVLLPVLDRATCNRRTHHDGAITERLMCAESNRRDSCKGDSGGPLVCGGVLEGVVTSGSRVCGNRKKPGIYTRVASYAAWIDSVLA

The assay addresses T1, factor D (Homo sapiens, UniProt P00746).
T1 construct: made in house; host or cells: E. coli
Briefly: factor D inhibition assay of Biological Example 2. The assay is classed as biochemical.
The molecule `CC(C(=O)O)c1ccccc1OCc1cccc(-c2cccc(CN)c2)c1` (centres unmarked) [Example 290, 2-(2-((3′-(aminomethyl)-[1,1′-biphenyl]-3-yl)methoxy)phenyl)propanoic acid] gave an IC50 of 1.67 µM. In other words, the single-digit micromolar range.

As for `NCc1cc(-c2cc(COc3ccccc3CC(=O)O)cc(OC[C@H]3CCCO3)c2)ccn1` [Example 138-A], the half-inhibitory concentration (IC50) was 0.002 µM. Compared with the last molecule, the IC50 is about 840-fold lower.

For `N[C@H](CO)c1cccc(-c2cc(COc3ccccc3CC(=O)O)cc(C(O)C3CCCCC3)c2)c1` (single isomer, unassigned) [116-I b) (tr = 6.3 min)], the IC50 was 0.024 µM. To `NCc1cccc(-c2ccc3c(c2)C(Oc2ccccc2CC(=O)O)CCO3)c1` (single isomer, unassigned) [177 b) (tr = 3.2 min), (+) or (−)-2-(2-((6-(3-(aminomethyl)phenyl)chroman-4-yl)oxy)phenyl)acetic acid] belongs 0.004 µM. Molecule `CC(Oc1ccccc1CC(=O)O)c1cccc(-c2cccc(CN)c2)c1` (racemic) [Example 163, (±)-2-(2-(1-(3′-(aminomethyl)-[1,1′-biphenyl]-3-yl)ethoxy)phenyl)acetic acid] showed an IC50 of 0.061 µM. Molecule `C[C@@H](N)c1cccc(-c2cc(COc3ccccc3CC(=O)O)c3c(c2)OCO3)c1` [Example 254, (R)-2-(2-((6-(3-(1-aminoethyl)phenyl)benzo[d][1,3]dioxol-4-yl)methoxy)phenyl)acetic acid] yielded an IC50 of 0.032 µM. `C[C@@H](N)c1cccc(-c2cc(CO)cc(COc3ccccc3CC(=O)O)c2)c1` [Example 116-A] showed an IC50 of 0.021 µM.

As to `N[C@H](CC1CC1)c1cccc(-c2cccc(COc3ccccc3CC(=O)O)c2)c1` [Example 196-I], the IC50 was 0.239 µM. For the molecule `CCc1cc(COc2ccccc2CC(=O)O)cc(-c2cccc(CN)c2)c1` [Example 104, 2-(2-((3′-(aminomethyl)-5-ethyl-[1,1′-biphenyl]-3-yl)methoxy)phenyl)acetic acid], the IC50 was determined as 0.006 µM. Next, `C[C@@H](N)c1cccc(-c2cc(COc3ccccc3CC(=O)O)cc(C3CCCC3)c2)c1F` [Example 244, (R)-2-(2-((3′-(1-aminoethyl)-5-cyclopentyl-2′-fluoro-[1,1′-biphenyl]-3-yl)methoxy)phenyl)acetic acid]: 0.003 µM; `CC(C)[C@@H](N)c1cccc(-c2cccc(COc3ccccc3CC(=O)O)c2)c1` [Example 190-F]: 3.15 µM; `C[C@@H](N)c1cccc(-c2cc(CNCC(F)(F)F)cc(COc3ccccc3CC(=O)O)c2)c1F` [Example 285-B]: 0.058 µM. `NCc1ccnc(-c2cc(COc3ccccc3CC(=O)O)cc(OC[C@H]3CCCO3)c2)c1` [Example 138-B] had an IC50 of 0.088 µM. To `COCCNc1cc(COc2ccccc2CC(=O)O)cc(-c2cccc([C@H](N)CO)c2)c1` [Example 84, (S)-2-(2-((3′-(1-Amino-2-hydroxyethyl)-5-((2-methoxyethyl)amino)-[1,1′-biphenyl]-3-yl)methoxy)phenyl)acetic acid] belongs 0.005 µM. For `NCc1cc(F)cc(-c2cccc(C(=O)Nc3ccccc3CC(=O)O)c2)c1` [Example 6-B, 2-(2-(3′-(Aminomethyl)-5′-fluoro-[1,1′-biphenyl]-3-ylcarboxamido)phenyl)acetic acid], the IC50 amounted to 0.106 µM. This IC50 is about 21-fold higher than that of the molecule before. To `CC(O)c1cc(COc2ccccc2CC(=O)O)cc(-c2cccc([C@H](N)CO)c2)c1` (mixture of isomers) [116-E a), 2-(2-((3′-((S)-1-amino-2-hydroxyethyl)-5-(1-hydroxyethyl)-[1,1′-biphenyl]-3-yl)methoxy)phenyl)acetic acid] belongs 0.009 µM. For the molecule `Cc1c(COc2ccccc2CC(=O)O)cccc1-c1cccc([C@H](N)CO)c1` [Example 116-L], it took 10.3 µM to reach half-maximal inhibition (IC50). To `C[C@@H](N)c1cccc(-c2cc(O)cc(COc3ccccc3CC(=O)O)c2)c1F` [Example 214-R] belongs 0.007 µM.

In the case of `C[C@H](N)c1cccc(-c2cc(COc3ccccc3CC(=O)O)cc(NCC3CCCC3)c2)c1F` [Example 216-C], the IC50 was found to be 0.006 µM. Take `CC(O)c1cc(COc2ccccc2CC(=O)O)cc(-c2cccc(CN)c2)c1` (racemic) [Example 106, (±)-2-(2-((3′-(Aminomethyl)-5-(1-hydroxyethyl)-[1,1′-biphenyl]-3-yl)methoxy)phenyl)acetic acid]: inhibition was half-maximal at 0.005 µM (IC50). The IC50 values of the last two molecules are within 1.5-fold of each other. To `C[C@@H](N)c1cccc(-c2cc(CNC3CCOC3)cc(COc3ccccc3CC(=O)O)c2)c1F` (some centres unmarked) [Example 216-AG] belongs 0.024 µM. To `N[C@H](CF)c1cccc(-c2cc(COc3ccccc3CC(=O)O)cc(NCC3CC3)c2)c1F` [Example 216-A] belongs 0.007 µM; to `C[C@@H](N)c1cccc(-c2cc(COc3ccccc3CC(=O)O)cc(N3CCCC3)c2)c1F` [Example 216-V], 0.009 µM; to `CCC[C@@H](N)c1cccc(-c2cc(CO)cc(COc3ccccc3CC(=O)O)c2)c1` [Example 117-B, (R)-2-(2-((3′-(1-Aminobutyl)-5-(hydroxymethyl)-[1,1′-biphenyl]-3-yl)methoxy)phenyl)acetic acid], 0.083 µM. Molecule `COC(=O)Cc1ccccc1NC(=O)c1cccc(-c2cc(CN)ccc2F)c1` [Example 4-A, Methyl 2-(2-(5′-(aminomethyl)-2′-fluoro-[1,1′-biphenyl]-3-ylcarboxamido)phenyl)acetate] showed an IC50 of 33.1 µM. Next, `CCC[C@@H](N)c1cccc(-c2cccc(COc3c(F)cccc3CC(=O)O)c2)c1` [Example 194, (R)-2-(2-((3′-(1-Aminobutyl)-[1,1′-biphenyl]-3-yl)methoxy)-3-fluorophenyl)acetic acid]: 0.263 µM.

`CCc1ccc(CC(=O)O)c(OCc2cccc(-c3cccc(CN)c3)c2)c1` [Example 293, 2-(2-((3′-(aminomethyl)-[1,1′-biphenyl]-3-yl)methoxy)-4-ethylphenyl)acetic acid]: the IC50 worked out at 0.005 µM. `CCc1ccc(NC(=O)c2cc(NC[C@@H]3CCCO3)cc(-c3cc(F)cc(CN)c3)c2)c(CC(=O)O)c1` [Example 25-D, (S)-2-(2-(3′-(Aminomethyl)-5′-fluoro-5-(((tetrahydrofuran-2-yl)methyl)amino)-[1,1′-biphenyl]-3-ylcarboxamido)-5-ethylphenyl)acetic acid] yielded a half-inhibitory concentration (IC50) of 0.011 µM. This IC50 is about 2.2-fold higher than that of the molecule before. Consider `NCc1cc(F)cc(-c2nc(C(=O)Nc3ccccc3CC(=O)O)c(C3CC3)s2)c1` [Example 35-B, 2-(2-(2-(3-(Aminomethyl)-5-fluorophenyl)-5-cyclopropylthiazole-4-carboxamido)phenyl)acetic acid], for which the IC50 worked out at 0.013 µM.

Turning to `NCc1cccc(-c2cc(NC[C@@H]3CCCO3)cc(C(=O)Nc3ccccc3CC(=O)O)n2)c1` [Example 45, (S)-2-(2-(6-(3-(Aminomethyl)phenyl)-4-(((tetrahydrofuran-2-yl)methyl)amino)picolinamido)phenyl)acetic acid], the IC50 is 0.012 µM. Regarding `C[C@@H](N)c1cccc(-c2cc(COc3ccccc3CC(=O)O)cc(N(C)CC3CCCC3)c2)c1F` [Example 216-F], the 50% inhibitory concentration (IC50) was 0.031 µM. Next, `Cc1cc(-c2cccc([C@@H](C)N)c2F)cc(COc2ccccc2CC(=O)O)c1C` [Example 283, (R)-2-(2-((3′-(1-aminoethyl)-2′-fluoro-4,5-dimethyl-[1,1′-biphenyl]-3-yl)methoxy)phenyl)acetic acid]: 0.013 µM. Next, `N[C@H](CO)c1cccc(-c2cccc(COc3ccccc3CC(=O)O)c2)c1Cl` [Example 141-B, (S)-2-(2-((3′-(1-Amino-2-hydroxyethyl)-2′-chloro-[1,1′-biphenyl]-3-yl)methoxy)phenyl)acetic acid]: 0.014 µM; `N[C@H](CO)c1cccc(-c2cccc(COc3ccccc3CC(=O)O)c2F)c1` [Example 123, (S)-2-(2-((3′-(1-Amino-2-hydroxyethyl)-2-fluoro-[1,1′-biphenyl]-3-yl)methoxy)phenyl)acetic acid]: 0.312 µM; `C[C@@H](N)c1cccc(-c2cc(COc3ccccc3CC(=O)O)cc(OCC3CCOCC3)c2)c1F` [Example 214-D]: 0.018 µM. Next, `NCc1cccc(-c2cccc(COc3ccccc3CC(=O)O)c2)c1Cl` [Example 142-B]: 0.077 µM; `C[C@@H](N)c1cccc(-c2cc(COc3ccccc3CC(=O)O)cc(CN3CCCOCC3)c2)c1F` [Example 216-AI]: 0.024 µM.

In the case of `CCCC[C@@H](N)c1cccc(-c2cccc(COc3ccccc3CC(=O)O)c2)c1` [Example 196-D], the half-inhibitory concentration (IC50) amounted to 0.642 µM. Compared with the last molecule, the IC50 is about 27-fold higher. Next, `N=C(N)c1cccc(-c2cccc(COc3ccccc3CC(=O)O)c2)c1` [Example 192-B, 2-(2-((3′-Carbamimidoyl-[1,1′-biphenyl]-3-yl)methoxy)phenyl)acetic acid]: 0.018 µM. Next, `CC(C)CC(=O)Nc1cc(C(=O)Nc2ccccc2CC(=O)O)cc(-c2cc(F)cc(CN)c2)c1` [Example 98, 2-(2-(3′-(Aminomethyl)-5′-fluoro-5-(3-methylbutanamido)-[1,1′-biphenyl]-3-ylcarboxamido)phenyl)acetic acid]: 0.004 µM. Regarding `CC(C)Nc1cc(COc2ccccc2CC(=O)O)cc(-c2cccc([C@@H](C)N)c2F)c1` [Example 152, (R)-2-(2-((3′-(1-aminoethyl)-2′-fluoro-5-(isopropylamino)-[1,1′-biphenyl]-3-yl)methoxy)phenyl)acetic acid], inhibition was half-maximal at 0.011 µM (IC50). To `CNC(=O)c1cc(C(=O)Nc2ccccc2CC(=O)O)cc(-c2cccc(CN)c2)c1` [Example 7-D, 2-(2-(3′-(Aminomethyl)-5-(methylcarbamoyl)-[1,1′-biphenyl]-3-ylcarboxamido)phenyl)acetic acid] belongs 0.244 µM; to `CC(C)Cn1cc(-c2cc(COc3ccccc3CC(=O)O)cc(-c3cccc(CN)c3)c2)cn1` [Example 209-D], 0.004 µM. To `Cn1ccc(Nc2cc(C(=O)Nc3ccccc3CC(=O)O)cc(-c3cc(F)cc(CN)c3)c2)n1` [Example 79-C] belongs 0.022 µM; to `NCc1cccc(-c2cccc(COc3ccccc3CC(=O)O)c2)c1F` [Example 138-H], 0.005 µM. The molecule `CC(C)n1cc(-c2cc(COc3ccccc3CC(=O)O)cc(-c3cccc(CN)c3)c2)cn1` [Example 209-C] returned an IC50 of 0.005 µM.

`C[C@@H](N)c1cccc(-c2cc(COc3ccccc3CC(=O)O)cc(OCc3cncn3C)c2)c1F` [Example 214-Q] yielded an IC50 of 0.01 µM.
